These results are taken from patent publication US20200093801A1, “NEW METHODS FOR THE TREATMENT OF MULTIPLE SCLEROSIS” (Novartis AG, priority 2017, published 2020).

SMILES strings stand for the structures. “Also recorded” adds a separate entry of the source.

A short description of data set [1]: Quantitative determination of BLZ945 in blood and brain (LC-MS-MS). The format is in vivo. Particulars: mice, p.o., FIG. 11. On the procedure:
Sample preparation and analysis was based on a modified protein precipitation procedure followed by liquid chromatographic separation coupled with mass spectrometry for detection. Cerebella were homogenized in a gentleMACS™ Dissociator (Milteniy Biotec, #130-093-235) by adding 20% CH3OH to a final concentration of 0.20 g/mL. Blood-EDTA samples were directly used for further preparation. Calibration, quality control, and recovery control samples were prepared by spiking blank blood and blank brain homogenate with known quantities of BLZ945 (between 0.02 and 62.5 μg/mL). For analyte determination, Labetalol hydrochloride (Sigma-Aldrich, # L1011) was used as generic internal standard (IS). […]
LC-MS-MS analysis: For quantitative analysis, a 1.5 μl aliquot of each sample, including calibration, quality control, and recovery control samples were injected with a cooled Waters™ Acquity Urbinary sample manager and HPLC system. […] Quantification was based on the compound/IS ratio of the extracted ion chromatograms of the selected mass transitions 399 m/z→242 m/z for BLZ945 and 329 m/z→162 m/z for Labetalol (IS). The unknown sample concentration was calculated using external calibration curves. The Lower Limit Of Quantification (LLOQ) of the method was set to 20 ng/mL for blood, and 100 ng/mL for brain samples, and the recovery from the matrix was 95±2%. […]

The test system of data set [2] is Cuprizone-Induced Demyelination in Mice. Description: Cuprizone-induced demyelination in mice, MRI (169 mg/kg). In kind it is in vivo, Mice (C57BL/6J). Particulars: 169 mg/kg p.o. qd, 2-week therapeutic treatment after 5 weeks 0.2% cuprizone. The source says:
Studies described below were approved by the Swiss Cantonal Veterinary Authority of Basel City, Switzerland, under the license number 2711. Mice (C57BL/6J) were commercially purchased from Charles River Laboratories, Germany or obtained from Novartis Pharma AG breeding colonies (8-9 weeks old, females). All the animals were allowed to adapt for 7 days prior the start of the experiment and housed in IVC racks (max. 4 mice/XJ Type cage). The animals were given access to food and water ad libitum. Animals were treated with cuprizone for 5 weeks. Cuprizone (Bis(cyclohexanone)oxaldihydrazone, Sigma-Aldrich) was mixed into rodent food pellets (0.2% w/w) by Provimi Kliba AG, Switzerland. Therapeutic treatment of animals after cuprizone was performed for 2 weeks on normal food with 169 mg/kg of BLZ945, qd, p.o. 10 ml/kg. BLZ945 was prepared in vehicle consisting of 0.5% methylcellulose in water and 0.1% Tween-80. Before killing 3 h after last BLZ945 dosing animals were perfused transcardially by phosphate-buffered saline (PBS), brains isolated and fixed in 4% paraformaldehyde (PFA) for 48 h at 4° C.
Measurements were performed with a Biospec 70/30 spectrometer (Bruker Medical Systems, Ettlingen, Germany) operating at 7 T. The operational software of the scanner was Paravision 5.1 (Bruker). Images were acquired from anesthetized, spontaneously breathing animals using a mouse brain circularly polarized coil (Bruker, Model 1P T20063V3; internal diameter 23 mm) for radiofrequency excitation and detection; neither cardiac nor respiratory triggering was applied. Following a short period of introduction in a box, animals were maintained in anesthesia with 1.5% isoflurane (Abbott, Cham, Switzerland) in oxygen, administered via a nose cone. During MRI signal acquisitions, animals were placed in prone position in a cradle made of Plexiglas, the body temperature was kept at 37±1° C. using a heating pad, and the respiration was monitored.
A T2-weighted, two-dimensional multislice RARE (Rapid Acquisition with Relaxation Enhancement) sequence (Hennig et al., 1986) was used for determining the anatomical orientation and for evaluating signal intensities. This was followed by a two-dimensional multislice gradient-recalled FLASH (Fast Low-Angle Shot) acquisition (Haase et al., 1986) for assessment of Magnetization Transfer Ration (MTR). As both sequences had the same anatomical parameters, the choice of the regions-of-interest for evaluations was performed on the RARE images and then transferred to the FLASH images. The parameters of the acquisitions were the following: (a) RARE sequence: effective echo time 80 ms, repetition time 3280 ms, RARE factor 16, 12 averages, field of view 20×18 mm^2, matrix size 213×192, pixel size 0.094×0.094 mm^2, slice thickness 0.5 mm, 15 adjacent slices. […]

The mark [3] stands for this setting: normalized to vehicle control (normal food).

Regarding `CNC(=O)c1cc(Oc2ccc3nc(N[C@@H]4CCCC[C@H]4O)sc3c2)ccn1` [BLZ945, 4-(2-((1R,2R)-2-hydroxycyclohexylamino)benzothiazol-6-yloxy)-N-methylpicolinamide], in data set [1] (C57BL/6J, mouse, brain (cerebellum homogenate) / whole blood (EDTA), po, read-out: brain/blood ratio), the Kp at 3 h was in the range of 0.3 to 0.6. The “Blood and brain BLZ945 levels” value in data set [1] is reported as “dose-dependent”. Besides, the “Magnetization transfer ratio (MTR) in corpus callosum” value in data set [2] was “No beneficial effect”. In data set [2] (setting [3]), the “MRI contrast in corpus callosum” value is “not corpus callosum; also recorded: No beneficial effect”, the “MRI contrast in cortex” value is “reduces MRI contrast; also recorded: significant beneficial effect; also recorded: almost normalized to levels of control mice” and the “MRI contrast in striatum” value is recorded as “reduces MRI contrast; also recorded: significant beneficial effect; also recorded: almost normalized to levels of control mice”.
